For series [1], the system named is HCV replicon RNA replication. The experiment in a line: HCV replicon assay (quantification of replicon RNA, Northern blot / Taqman kinetic PCR). In kind it is cell-based. To be noted: Hepatitis C virus, Huh-7, 72 h. On the procedure: Assay Method: The activity of the compounds was assayed using an adaptation of the method reported by Lohmann et al [V. Lohmann et al., Science, 1999, 285, 110-113].
The HCV replicon-containing cell line is used for the identification of small molecules that are able to inhibit the replication of the replicon RNA. Since the replicon RNA replication mimics the replication of the HCV RNA in infected hepatocytes, it is believed that those small molecules that have the above property are interesting for further development as anti-HCV drugs.
The inhibition of the HCV replicon RNA replication will lead to a decrease of the replicon RNA in the cell, which can be measured using a method that specifically quantifies this RNA.
Northern blot: One method for quantification of this RNA uses the standard Northern blot known to any person skilled in the art.
Kinetic PCR: A second assay for the quantification of replicon RNA is based on the amplification of the replicon RNA that remains in the cell, after incubation of the cells with a proper concentration of the small molecules. This method involves the reverse transcription of the replicon RNA to the corresponding complementary DNA (cDNA), followed by amplification of the cDNA using the Taqman Kinetic PCR technology (PE Biosystems). This consists of hybridisation of the cDNA with a complementary reporter oligonucleotide (probe), containing a combined fluorescent dye and a quencher dye. Amplification of the DNA sequence containing the hybridised reporter probe, using flanking oligonucleotide primers will lead to the separation of the fluorescent dye from the quencher dye. This will result in an increase of the fluorescence during each amplification cycle.
The neomycin phosphotransferase gene sequence that is present in the replicon RNA was chosen for amplification using specifically designed oligonucleotide primers. To control for (a) cell number that can vary depending on the toxicity or cytostatic effect of the small molecules, and (b) for errors during total RNA extraction, amplification of the host β-actin gene is used for normalisation.
The accumulation of the PCR products during the reaction is monitored directly by measuring the increase in fluorescence of the reporter dye. The amount of HCV replicon RNA (and β-actin RNA) originally present in the total RNA extracted from the cells is then expressed as a threshold cycle, e.g. the cycle at which there is a statistically significant increase in the fluorescence above the background.
For this procedure, HCV replicon-containing human hepatoma Huh7 cells (9-13) in growth medium (DMEM) containing 5% FCS are plated in a 96-well plate at 5×10^3 cells per well, and the plate incubated overnight. 24 hours later, different dilutions in 0.1 ml growth medium of chemical compounds were added to the wells, and the plate further incubated at 37° C. for three days. Total RNA coming from each well is extracted using the RNeasy™ procedure (Qiagen manufacturer instructions), and the total RNA is eluted in a final volume of 0.13 ml. Next, a 2 μl sample of the total RNA is used for convertion into cDNA using a reverse transcription (RT) step. A RT mastermix containing 1 μl 10× Taqman RT buffer, 2.2 μl 25 mM MgCl2 (5.5 mM final conc.), 2 μl dNTP mix (500 μM each), 0.5 μl random hexamer primers (2.5 μM), 0.2 μl RNase inhibitor (0.4 u/μl ), 0.25 μl RT (1.25 u/μl ), 1.85 μl H2O, was distributed in a 96-well plate and 2 μl total RNA was added to each well.
The RT reaction is performed by incubation of the plate 10 min at 25° C., 30 min at 48° C., 5 min at 95° C. and cooling to 4° C. The cDNA samples are then stored at −20° C. or directly used for the PCR reaction. […]
For orientation: A replicon is a self-replicating genome or part of one, used to study replication in cells.

[2] abbreviates: HCV replicon-containing human hepatoma Huh7 cells (9-13), three days incubation, concentration reducing replicon RNA levels by 50%, read-out: IC50.

Where two headings read alike, the source gives them in different places.

Usually melting point stands for the temperature of the solid-liquid transition. As for `Nc1ncnc2c1nc(N1CCN(c3ccccc3)CC1)n2[C@@H]1O[C@H](CO)[C@@H](O)[C@H]1O`, the melting point is 220 to 223 °C (dec.).
The same measure, in the same setting: the same measure for `Nc1ncnc2c1nc(N1CCOCC1)n2[C@@H]1O[C@H](CO)[C@@H](O)[C@H]1O`: 210 to 213 °C.
One may read the IC50 as the concentration that inhibits the measured activity by half. `OC[C@H]1O[C@@H](n2cnc3c(-n4cccn4)ncnc32)[C@H](O)[C@@H]1O` [Example 113, 6-(1-Pyrazolyl)-9-(β-D-ribofuranosyl)purine]: the IC50 in series [1] (setting [2]) is 4.4 µM.
On to `OC[C@H]1O[C@@H](n2cnc3c(N4CCCC4)nc(Cl)nc32)[C@H](O)[C@@H]1O`, for which the melting point came to 229 °C.
For `Nc1ncnc2c1nc(NCCc1ccc(S(N)(=O)=O)cc1)n2[C@@H]1O[C@H](CO)[C@@H](O)[C@H]1O`, the melting point was 157 to 163 °C (dec.).
The same measure, in the same setting: with `O=c1ccn([C@@H]2O[C@H](CO)[C@@H](O)[C@H]2Br)c(=O)[nH]1` the figure was 194 to 195 °C; with `Nc1ncnc2c1nc(N1CCc3ccccc3C1)n2[C@@H]1O[C@H](CO)[C@@H](O)[C@H]1O`, 145 to 150 °C (dec.).
`Nc1ccn([C@H]2O[C@@H](CO)[C@H](O)[C@@H]2O)c(=O)n1` [Example 244, L-cytidine]: in series [1] (setting [2]), the IC50 was 10 µM.
Consider `Nc1ncnc2c1nc(NCCc1ccccc1)n2[C@H]1C[C@H](O)[C@@H](CO)O1`, for which the melting point lay in the range of 192 to 195 °C.
Take `OC[C@H]1O[C@@H](n2cnc3c(Cl)ncnc32)[C@H](O)[C@@H]1O` [Example 19, 6-Chloro-9-(β-D-ribofuranosyl)purine]: in series [1], the IC50 was 14 µM.
Molecule `O=c1ccn([C@@H]2O[C@H](CO)[C@@H](O)[C@H]2Cl)c(=O)[nH]1` yielded a melting point of 206 to 207 °C.
The molecule `Nc1ncnc2c1nc(NCCCCc1ccccc1)n2[C@H]1C[C@H](O)[C@@H](CO)O1` came in with a melting point of 168 to 171 °C.
The molecule `Nc1ncnc2c1nc(NCCC1CCCCC1)n2[C@@H]1O[C@H](CO)[C@@H](O)[C@H]1O` displayed a melting point of 203 to 205 °C.
The same measure, in the same setting: the same measure for `Nc1ncnc2c1nc(NCCc1ccc(Cl)cc1)n2[C@@H]1O[C@H](CO)[C@@H](O)[C@H]1O`: 155 to 158 °C (dec.); for `Nc1ncnc2c1nc(NCCc1c[nH]cn1)n2[C@@H]1O[C@H](CO)[C@@H](O)[C@H]1O`: 148 to 156 °C (dec.).
The same measure, in the same setting: with `OC[C@@H]1C[C@@H](O)[C@H](n2cnc3c(-n4cccc4)ncnc32)O1` the figure was 175 to 176 °C; with `Cc1ccc(CCNc2nc3c(N)ncnc3n2[C@@H]2O[C@H](CO)[C@@H](O)[C@H]2O)cc1`, 117 to 124 °C (dec.).
In the case of `CN(C)c1ncnc2c1ncn2[C@@H]1O[C@H](CO)[C@@H](O)[C@H]1O` [Example 1, 6-Dimethylamino-9-(β-D-ribofuranosyl)purine], the IC50 in series [1] (setting [2]) was 0.6 µM.
As for `Nc1ncnc2c1nc(NCCCc1ccccc1)n2[C@H]1C[C@H](O)[C@@H](CO)O1`, the melting point is 198 to 201 °C.
On to `OC[C@@H]1O[C@H](n2cnc3c(-n4cccc4)ncnc32)[C@@H](O)[C@H]1O`, for which the melting point was 114 to 115 °C.
As for `OC[C@H]1O[C@@H](n2cnc3c(-n4cccc4)ncnc32)[C@H](O)[C@@H]1O` [Example 105, 6-(1-Pyrrolyl)-9-(β-D-ribofuranosyl)purine], the IC50 in series [1] (setting [2]) is 0.1 µM.
On to `OC[C@H]1O[C@@H](n2cnc3c(-n4ccnc4)ncnc32)[C@H](O)[C@@H]1O` [Example 111, 6-(1-Imidazolyl)-9-(β-D-ribofuranosyl)purine], for which, in series [1] (setting [2]), the IC50 was 6.2 µM.
Regarding `O=c1[nH]c(=O)n([C@@H]2O[C@H](CO)[C@@H](O)[C@H]2O)cc1F` [Example 24, 5-Fluorouridine], the IC50 in series [1] (setting [2]) came to 1.4 µM.
Molecule `Nc1ncnc2c1nc(NCCN1CCOCC1)n2[C@@H]1O[C@H](CO)[C@@H](O)[C@H]1O` returned a melting point of 210 to 215 °C.
Take `Nc1c2ncn([C@@H]3O[C@H](CO)[C@@H](O)[C@H]3O)c2nc[n+]1[O-]` [Example 7, Adenosine-1-oxide]: the IC50 in series [1] (setting [2]) came out at 2 µM.
`OC[C@H]1O[C@@H](n2cnc3c(-n4cccc4)ncnc32)[C@@H](O)[C@@H]1O` returned a melting point of 212 to 213 °C.
As for `Nc1nc(-c2ccccc2)c2ncn([C@@H]3O[C@H](CO)[C@@H](O)[C@H]3O)c2n1`, the melting point is 187 to 190 °C.
Molecule `Nc1ncnc2c1nc(NCc1cccc3ccccc13)n2[C@@H]1O[C@H](CO)[C@@H](O)[C@H]1O` yielded a melting point of 140 to 150 °C.
As for `O=c1[nH]/c(=N/O)ccn1[C@@H]1O[C@H](CO)[C@@H](O)[C@H]1O` [Example 239, 4-oximino-1-(β-D-ribofuranosyl)pyrimidin-2(1H)-one], the IC50 in series [1] (setting [2]) is 1.3 µM.
On the same count and under the same terms, with `OC[C@H]1O[C@@H](n2cnc3c(-n4cncn4)ncnc32)[C@H](O)[C@@H]1O` [Example 112, 9-(β-D-Ribofuranosyl)-6-(1,2,4-triazol-1-yl)purine] the figure was 4.4 µM.
In turn, `Nc1ncnc2c1nc(NCCCCc1ccccc1)n2[C@@H]1O[C@H](CO)[C@@H](O)[C@H]1O` came in with a melting point of 190 °C.
For the molecule `C#CCNc1ncnc2c1ncn2[C@@H]1O[C@H](CO)[C@@H](O)[C@H]1O` [Example 81, 6-(2-Propynyl)amino-9-(β-D-ribofuranosyl)purine], the IC50 in series [1] (setting [2]) is 3.8 µM.
Regarding `C=CCNc1nc2c(N)ncnc2n1[C@@H]1O[C@H](CO)[C@@H](O)[C@H]1O`, the melting point was 234 to 237 °C (dec.).
For the molecule `Nc1ccn([C@@H]2C[C@H](CO)[C@@H](O)C2(F)F)c(=O)n1` [Example 245, 1-[1(R)-2,2-difluoro-3(R)-hydroxy-4(R)-(hydroxymethyl)cyclopentyl]-4-amino-1H-pyrimindin-2-one], the IC50 in series [1] (setting [2]) was found to be 2 µM.
With `Nc1ccn([C@@H]2O[C@H](CO)[C@@H](O)C2(F)F)c(=O)n1` [Example 243, 1-(2-deoxy-2,2-difluoro-β-D-erythropentofuranosyl)cytosine], the concentration for half-maximal inhibition (IC50) in series [1] (setting [2]) turned out to be 0.07 µM.
On to `Nc1ncnc2c1nc(NCc1ccccc1)n2[C@H]1C[C@H](O)[C@@H](CO)O1`, for which the melting point lay in the range of 132 to 134 °C.
`CSc1ncnc2c1ncn2[C@@H]1O[C@H](CO)[C@@H](O)[C@H]1O` [Example 16, 6-Methylthio-9-(β-D-ribofuranosyl)purine]: in series [1] (setting [2]), the IC50 is 0.08 µM.
The molecule `CN(CCc1ccccc1)c1nc2c(N)ncnc2n1[C@@H]1O[C@H](CO)[C@@H](O)[C@H]1O` yielded a melting point of 118 to 120 °C.
`Nc1ncnc2c1nc(NCCCc1ccccc1)n2[C@@H]1O[C@H](CO)[C@@H](O)[C@H]1O` came in with a melting point of 180 to 183 °C.
Turning to `Nc1ncnc2c1nc(N1CCCCC1)n2[C@@H]1O[C@H](CO)[C@@H](O)[C@H]1O`, the melting point was 207 to 209 °C (dec.).
On to `Nc1ncnc2c1nc(NCCc1ccc(Cl)cc1Cl)n2[C@@H]1O[C@H](CO)[C@@H](O)[C@H]1O`, for which the melting point is 164 to 168 °C (dec.).
The same measure, in the same setting: the same measure for `Cn1cccc1CCNc1nc2c(N)ncnc2n1[C@@H]1O[C@H](CO)[C@@H](O)[C@H]1O`: 225 to 228 °C.
In the case of `Nc1ncnc2c1nc(Br)n2[C@@H]1O[C@H](CO)[C@@H](O)[C@H]1O` [Example 10, 8-Bromoadenosine], 3.6 µM corresponded to half-maximal inhibition in series [1] (IC50).
On to `Nc1ncnc2c1nc(NCCCCCCc1ccccc1)n2[C@@H]1O[C@H](CO)[C@@H](O)[C@H]1O`, for which the melting point fell in the range of 165 to 167 °C.
On the same count and under the same terms, with `Nc1ncnc2c1nc(NCCCCCCc1ccccc1)n2[C@H]1C[C@H](O)[C@@H](CO)O1` the figure was 159 to 161 °C; with `CCc1cn([C@@H]2O[C@H](CO)[C@@H](O)[C@H]2O)c(=O)[nH]c1=O`, 180 to 181 °C; with `Nc1ncnc2c1nc(NCc1cccnc1)n2[C@@H]1O[C@H](CO)[C@@H](O)[C@H]1O`, 235 to 237 °C (dec.).
In the case of `Nc1ncnc2c1nc(NCCc1ccc(O)cc1)n2[C@@H]1O[C@H](CO)[C@@H](O)[C@H]1O`, the melting point is 262 to 265 °C (dec.).

The record behind these values is patent US20040110718A1, “Anti-HCV nucleoside derivatives” (priority 2000, published 2004).
